From US20170253601A1, “Substituted Pyrrolidine Compounds” (EPIZYME, INC., priority 2014, published 2017) come the findings set out here.

Molecules are shown by their SMILES. Some results are limits rather than exact numbers.

T1 sequence (Q9NRG4 whole entry): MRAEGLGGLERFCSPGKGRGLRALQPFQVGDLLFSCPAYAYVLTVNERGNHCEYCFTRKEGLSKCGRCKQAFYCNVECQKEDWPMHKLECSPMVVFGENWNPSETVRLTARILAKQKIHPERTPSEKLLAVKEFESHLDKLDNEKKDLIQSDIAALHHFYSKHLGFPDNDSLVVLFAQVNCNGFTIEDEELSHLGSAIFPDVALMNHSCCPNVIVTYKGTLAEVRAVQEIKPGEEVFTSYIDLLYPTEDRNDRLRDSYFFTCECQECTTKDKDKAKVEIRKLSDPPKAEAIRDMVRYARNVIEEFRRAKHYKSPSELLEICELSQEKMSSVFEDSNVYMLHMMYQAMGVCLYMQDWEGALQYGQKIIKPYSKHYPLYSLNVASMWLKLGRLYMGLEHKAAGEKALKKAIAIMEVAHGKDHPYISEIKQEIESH

The first assay addresses T1, SMYD2 (Homo sapiens, UniProt Q9NRG4).
T1 construct: Full length SMYD2 (NP 064582.2) was cloned; His6 (N, cleaved yes); FLAG (N); made in house; host or cells: Sf9 insect cells
Kind of assay: SMYD2 Biochemical Assay (3H-SAM, biotinylated peptide substrate, Flashplate). As to conditions: IC50 values are an average of n = 1 to n = 50; read-out: SMYD2 Biochem IC50 (μM)*. In outline: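 Full-length His/FLAG-tagged SMYD2 expressed in Sf9 cells with tag cleaved, 1.5 nM, pre-incubated 30 min at room temperature with compound, then 10 nM 3H-SAM and 60 nM biotinylated peptide added. Buffer 20 mM Bicine pH 7.6, 1 mM TCEP, 0.005% BSG, 0.002% Tween20, 2% DMSO. Stopped with 600 uM cold SAM; 3H-peptide captured on streptavidin Flashplate; IC50 by curve fit.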
Broadly, the IC50 is the concentration that gives 50% inhibition. Regarding `CC(C)N1C[C@H](C)[C@H](NC(=O)c2cc(CC(F)F)on2)C1` (racemic) [compound 345, (±)-cis-5-(2,2-difluoro-ethyl)-N-[4-methyl-1-(propan-2-yl)pyrrolidin-3-yl]-1,2-oxazole-3-carboxamide], the IC50 is 5.84 µM.
On the same count and under the same terms, under `CC(C)N1C[C@@H](NC(=O)c2cc(C3CC3)on2)[C@](C)(O)C1` [compound 245, 5-cyclopropyl-N-[(3R,4R)-4-hydroxy-4-methyl-1-(propan-2-yl)pyrrolidin-3-yl]-1,2-oxazole-3-carboxamide] stands 6.8 µM; under `C[C@@H]1CN(CC(F)(F)F)C[C@H]1NC(=O)c1cc(C2CC2)on1` (racemic) [compound 261, (±)-trans-5-cyclopropyl-N-[4-methyl-1-(2,2,2-trifluoroethyl)pyrrolidin-3-yl]-1,2-oxazole-3-carboxamide], greater than 50 µM.
Take `C[C@H]1CN(Cc2c[nH]c(-c3ccccc3)n2)C[C@H]1NC(=O)c1cc(C2CC2)on1` (racemic) [compound 288, (±)-cis-5-cyclopropyl-N-{4-methyl-1-[(2-phenyl-1H-imidazol-4-yl)methyl]pyrrolidin-3-yl}-1,2-oxazole-3-carboxamide]: the IC50 was 21.1 µM.
Still for that read-out and setting: under `C[C@@H]1CN(CC(=O)N2CCOCC2)C[C@H]1NC(=O)c1cc(C2CC2)on1` (racemic) [compound 271, (±)-trans-5-cyclopropyl-N-[4-methyl-1-[2-(morpholin-4-yl)-2-oxoethyl]pyrrolidin-3-yl]-1,2-oxazole-3-carboxamide] stands greater than 50 µM; under `C[C@H]1CN(Cc2ncc[nH]2)C[C@H]1NC(=O)c1cc(C2CC2)on1` (racemic) [compound 327, (±)-cis-5-cyclopropyl-N-[1-(1H-imidazol-2-ylmethyl)-4-methyl-pyrrolidin-3-yl]-1,2-oxazole-3-carboxamide], 49.7 µM.
For the compound `CCC[C@H]1CN(C)C[C@@H]1NC(=O)c1cc(C2CC2)on1` (racemic) [compound 150, (±)-trans-5-cyclopropyl-N-[1-methyl-4-propylpyrrolidin-3-yl]-1,2-oxazole-3-carboxamide], the IC50 was determined as 44.9 µM.
With `C[C@@H]1CN(c2cccc(Cl)c2)C[C@H]1NC(=O)c1cc(C2CC2)on1` (racemic) [compound 297, (±)-trans-N-[1-(3-chloro-phenyl)-4-methyl-pyrrolidin-3-yl]-5-cyclopropyl-1,2-oxazole-3-carboxamide], the IC50 is greater than 50 µM.
Same read-out and setting: next, `COc1ncc(CN2C[C@@H](C)[C@H](NC(=O)c3cc(C4CC4)on3)C2)cc1Br` (racemic) [compound 174, (±)-trans-N-[1-[(5-bromo-6-methoxypyridin-3-yl)methyl]-4-methylpyrrolidin-3-yl]-5-cyclopropyl-1,2-oxazole-3-carboxamide]: greater than 50 µM; `C[C@H]1CN(Cc2c(Br)cncc2Br)C[C@H]1NC(=O)c1cc(C2CC2)on1` (racemic) [compound 231, (±)-cis-5-cyclopropyl-N-[1-[(3,5-dibromo-pyridin-4-yl)methyl]-4-methylpyrrolidin-3-yl]-1,2-oxazole-3-carboxamide]: greater than 50 µM; `CC(=O)Nc1ccc(N2C[C@H](C)[C@H](NC(=O)c3cc(C4CC4)on3)C2)cc1` (racemic) [compound 278, (±)-cis-5-cyclopropyl-N-[1-(4-acetamido-phenyl)-4-methylpyrrolidin-3-yl]-1,2-oxazole-3-carboxamide]: greater than 50 µM.
Same read-out and setting: next, `C[C@H]1CN(CC2CCN(C(=O)OC(C)(C)C)CC2)C[C@H]1NC(=O)c1cc(C2CC2)on1` (racemic) [compound 205, (±)-cis-tert-butyl 4-{[3-(5-cyclopropyl-1,2-oxazole-3-amido)-4-methylpyrrolidin-1-yl]methyl}piperidine-1-carboxylate]: 7.69 µM.
For the compound `CO[C@H]1CN(C)C[C@H]1NC(=O)c1cc(C2CC2)on1` (racemic) [compound 123, (±)-cis-5-cyclopropyl-N-(4-methoxy-1-methylpyrrolidin-3-yl)-1,2-oxazole-3-carboxamide], the IC50 stood at 49.8 µM.
The same measure, in the same setting: under `CC(C)N1C[C@H](C)[C@H](NC(=O)c2cc(C3(C)CC3)on2)C1` (racemic) [compound 217, (±)-cis-N-[4-methyl-1-(propan-2-yl)pyrrolidin-3-yl]-5-(1-methyl-cyclopropyl)-1,2-oxazole-3-carboxamide] stands 22.3 µM.
In the case of `C[C@@H]1CN(C2CCS(=O)(=O)CC2)C[C@H]1NC(=O)c1cc(C2CC2)on1` (racemic) [compound 225, (±)-trans-5-cyclopropyl-N-[1-(1,1-dioxo-1??- thian-4-yl)-4-methyl-pyrrolidin-3-yl]-1,2-oxazole-3-carboxamide], the concentration for half-maximal inhibition (IC50) was greater than 50 µM.
Same read-out and setting: under `C[C@@H]1CN(CC2CC2)C[C@H]1NC(=O)c1cc(C2CC2)on1` (racemic) [compound 126, (±)-trans-5-cyclopropyl-N-[1-(cyclopropyl-methyl)-4-methyl-pyrrolidin-3-yl]-1,2-oxazole-3-carboxamide] stands greater than 50 µM; under `C[C@H]1CN(Cc2ccc(N3CCCC3)cc2)C[C@H]1NC(=O)c1cc(C2CC2)on1` (racemic) [compound 229, (±)-cis-5-cyclopropyl-N-[4-methyl-1-{[4-(pyrrolidin-1-yl)phenyl]methyl}pyrrolidin-3-yl]-1,2-oxazole-3-carboxamide], 3.32 µM.
The same measure, in the same setting: next, `C[C@@H]1CN(C2CC2)C[C@@H]1NC(=O)c1cc(C2CC2)on1` [compound 235, 5-cyclopropyl-N-[(3R,4R)-1-cyclopropyl-4-methyl-pyrrolidin-3-yl]-1,2-oxazole-3-carboxamide]: 1.15 µM; `C[C@H]1CN(c2cccnc2)C[C@H]1NC(=O)c1cc(C2CC2)on1` (racemic) [compound 336, (±)-cis-5-cyclopropyl-N-[4-methyl-1-(pyridin-3-yl)pyrrolidin-3-yl]-1,2-oxazole-3-carboxamide]: greater than 50 µM; `CC(C)N1C[C@H](C)[C@H](NC(=O)c2cc(C(F)F)on2)C1` (racemic) [compound 300, (±)-cis-5-(difluoro-methyl)-N-[4-methyl-1-(propan-2-yl)pyrrolidin-3-yl]-1,2-oxazole-3-carboxamide]: 9.59 µM.
For `Cc1cc(CN2C[C@H](C)[C@H](NC(=O)c3cc(C4CC4)on3)C2)oc1C` (racemic) [compound 268, (±)-cis-5-cyclopropyl-N-{1-[(4,5-dimethyl-furan-2-yl)methyl]-4-methylpyrrolidin-3-yl]-1,2-oxazole-3-carboxamide], the IC50 is 5.3 µM.
Still for that read-out and setting: next, `C[C@@H]1CN(Cc2ccc(N3CCCC3)cc2)C[C@H]1NC(=O)c1cc(C2CC2)on1` (racemic) [compound 172, (±)-trans-5-cyclopropyl-N-[4-methyl-1-{[4-(pyrrolidin-1-yl)phenyl]methyl}pyrrolidin-3-yl]-1,2-oxazole-3-carboxamide]: 29.5 µM; `C[C@H]1CN(Cc2c[nH]c3cc(Cl)ccc23)C[C@H]1NC(=O)c1cc(C2CC2)on1` (racemic) [compound 324, (±)-cis-N-{1-[(6-chloro-1H-indol-3-yl)methyl]-4-methylpyrrolidin-3-yl}-5-cyclopropyl-1,2-oxazole-3-carboxamide]: 9.34 µM.
With `C[C@@H]1CN(Cc2cc([N+](=O)[O-])ccc2F)C[C@H]1NC(=O)c1cc(C2CC2)on1` (racemic) [compound 179, (±)-trans-5-cyclopropyl-N-[1-[(2-fluoro-5-nitrophenyl)methyl]-4-methylpyrrolidin-3-yl]-1,2-oxazole-3-carboxamide], the IC50 is greater than 50 µM.
Same read-out and setting: under `C[C@@H]1CN(CC2CCC2)C[C@H]1NC(=O)c1cc(C2CC2)on1` (racemic) [compound 156, (±)-trans-N-[1-(cyclobutyl-methyl)-4-methylpyrrolidin-3-yl]-5-cyclopropyl-1,2-oxazole-3-carboxamide] stands greater than 50 µM; under `C[C@H]1CN(Cc2ccccc2Cl)C[C@H]1NC(=O)c1cc(C2CC2)on1` (racemic) [compound 275, (±)-cis-N-{1-[(2-chloro-phenyl)methyl]-4-methyl-pyrrolidin-3-yl}-5-cyclopropyl-1,2-oxazole-3-carboxamide], 3.02 µM.

Still in this assay, the particulars now being: Table 1; average of n = 1 to n = 50; read-out: SMYD2 Biochem IC50.
In the case of `O=C(N[C@@H]1CN(C2CC2)C[C@@H]1CO)c1cc(C2CC2)on1` (racemic) [Cpd. No. 48, (±)-cis-5-cyclopropyl-N-(1-cyclopropyl-4-(hydroxymethyl)pyrrolidin-3-yl)isoxazole-3-carboxamide], the IC50 came to 8.46 µM.
On the same count and under the same terms, under `CC(C)N1C[C@H](NC(=O)c2cc(C3CC3)on2)[C@@H](C)C1` [compound 42, 5-cyclopropyl-N-((3R,4S)-1-isopropyl-4-methyl-pyrrolidin-3-yl)isoxazole-3-carboxamide] stands 1.9 µM.

Still in this assay, the particulars now being: Table 2; average of n = 1 to n = 50; read-out: SMYD2 Biochem IC50.
As to `C[C@@H]1CN(C2CCN(C)CC2)C[C@@H]1NC(=O)c1cc(C2CC2)on1` (racemic) [compound 82, (±)-cis-5-cyclopropyl-N-(4-methyl-1-(1-methylpiperidin-4-yl)pyrrolidin-3-yl)isoxazole-3-carboxamide], the IC50 was greater than 50 µM.
Still for that read-out and setting: next, `C[C@H]1CN(CCN)C[C@H]1NC(=O)c1cc(C2CC2)on1` (racemic) [compound 78, (±)-cis-N-(1-(2-aminoethyl)-4-methylpyrrolidin-3-yl)-5-cyclopropylisoxazole-3-carboxamide]: 27.5 µM; `C[C@H]1CN(Cc2cccnc2)C[C@H]1NC(=O)c1cc(C2CC2)on1` (racemic) [compound 107, (±)-cis-5-cyclopropyl-N-(4-methyl-1-(pyridin-3-ylmethyl)pyrrolidin-3-yl)isoxazole-3-carboxamide]: 17.7 µM.
